Source: EP0007019A1, “5-Phenyl-pyrazole derivatives and their salts, processes for their preparation and medicines containing them” (Kali-Chemie Pharma GmbH, priority 1978, dated 1980)
Read-outs that look alike come from different tables or passages of the source.

Legend:
Type in all cases: in vivo
[1] = Acute 7-day toxicity after a single administration (LD50, probit analysis); details: in vivo, single administration, fasted NMRI mouse, 7 days
Excerpt: (§1) Die akute 7-Tage-Toxizität wurde nach einmaliger Applikation an der weißen, nüchternen NMRI-Maus bestimmt.

unbehandelten Ratte = assay: Determination of triglyceride lowering in the untreated rat over 4 days; details: po, 96 h, 200 mg/kg per Magensonde, 4 Tage, serum triglycerides, percent versus control, 10 animals per group, read-out: Triglyceridsenkung in %
Experimental: Die Verbindungen wurden auf triglyceridsenkende Eigenschaften an der unbehandelten Ratte über einen Zeitraum von 4 Tagen untersucht. Die Substanzen wurden in der Dosierung von 200 mg/kg per Magensonde in 5 ml 1%-iger Traganth-Lösung appliziert. Die Blutentnahme erfolgte im Ätherrausch aus dem retrobulbären Venenplexus. Die Serumtriglyceride wurden nach Eggstein und Kreutz (Klin. Wschr. 44, 262 (1966)) bestimmt. Jede Gruppe bestand aus 10 Tieren. Die statistische Prüfung erfolgte nach dem Student-t-Test. Als Signifikanzgrenze diente p ≤0,01.
Die Triglyceridsenkung durch die untersuchten Substanzen in Prozent gegenüber der Kontrolle ist der Tabelle 2 zu entnehmen.

[2] = test system: Sprague-Dawley-Ratten mit diätetischer Hyperlipidämie; assay: Lipid-lowering effect in rats with dietary hyperlipidaemia, 4 weeks p.o., compared with Clofibrat; liver weight; details: for Serum Gesamt-Cholesterin / Serum Triglyceride / Lebergewicht: 4 Wochen; for Serum Gesamt-Cholesterin: 20 animals per group, Kontrolle 15,2 ± 2,4; for Serum Triglyceride: Kontrolle 1,04 ± 0,34; for Lebergewicht: Kontrolle 7,3 ± 0,7
Experimental: Die Testsubstanz wurde über einen Zeitraum von 4 Wochen in Dosierungen von 100 und 200 mg/kg Körpergewicht p.o. täglich per Magensonde in 10 ml einer 1%-igen Traganth-Lösung verabreicht. Clofibrat wurde entsprechend in Dosierungen von 100 und 200 mg/kg gegeben. Die Kontrolltiere erhielten 10 ml der Trägerflüssigkeit Traganth/kg Körpergewicht per Magensonde.
Jede Gruppe bestand aus 20 Tieren; das Gewicht der Leber wurde festgestellt und verglichen.
Die Blutentnahme erfolgte im Ätherrausch aus dem retrobulbären Venenplexus.
Ausgeführt wurden Varianzanalyse und Student-t-Test. Als Signifikanzgrenze diente p≤0,01.

Versuchstieren = assay: PCA test (passive cutaneous anaphylaxis reaction), peroral
Excerpt: Die neuen Verbindungen eignen sich insbesondere aufgrund ihrer oralen antianaphylaktischen Wirksamkeit zur Behandlung von allergischen Reaktionen.

NMRI-Maus = assay: Acute 7-day toxicity after a single administration (LD50, probit analysis); details: for Toxizität: statement in words, test not specified
Excerpt: as §1

[3] = 100 mg/kg p.o. täglich, mean ± spread

**Q.** Which results are given for `CC(C)(Oc1cc(-c2ccc(Cl)cc2)n(-c2ccccc2)n1)C(N)=O` [Substanz Nr. 2, 1-Phenyl-5-(4-chlorphenyl)-3-(2-aminocarbonyl-propyl-2-oxy)-pyrazol]?
**A.** LD50 at 168 h ([1]; ip, read-out: LD50 i.p.): > 100 mg/kg; LD50 at 168 h ([1]; po, read-out: LD50 p.o.): > 1470 mg/kg; inhibition in vivo at 200 mg/kg (unbehandelten Ratte): 20%

**Q.** With `CC(C)(Oc1cc(-c2ccccc2)n(-c2ccccc2)n1)C(N)=O` [Substanz A, 1,5-Diphenyl-3-(2-aminocarbonylpropyl-2-oxy)-pyrazol] as the compound, how does the LD50 at 168 h ([1]; ip, read-out: LD50 i.p.) read?
**A.** The LD50 at 168 h was 571 mg/kg.

**Q.** What about the LD50 at 168 h ([1]; po, read-out: LD50 p.o.) of the same compound?
**A.** Its LD50 at 168 h is > 1470 mg/kg.

**Q.** What about the “Serum Gesamt-Cholesterin” value [2, 3] of the same compound?
**A.** The value was 6,8 ± 2,4 mmol/l.

**Q.** And the “Serum Triglyceride” value ([2]; 100 mg/kg p.o. täglich)?
**A.** Its value is 0,83 ± 0,20 mmol/l.

**Q.** And the Lebergewicht ([2]; 100 mg/kg p.o. täglich)?
**A.** Its Lebergewicht is 7,2 ± 0,6 g/100 g.

**Q.** What about the “Serum Gesamt-Cholesterin” value ([2]; 200 mg/kg p.o. täglich) of the same compound?
**A.** Its value is 5,5 ± 1,4 mmol/l.

**Q.** And the “Serum Triglyceride” value ([2]; 200 mg/kg p.o. täglich)?
**A.** Its value is 0,70 ± 0,16 mmol/l.

**Q.** What about the Lebergewicht ([2]; 200 mg/kg p.o. täglich) of the same compound?
**A.** Its Lebergewicht is 7,4 ± 0,7 g/100 g.

**Q.** And the “Veränderungen der Leber (Zunahme des Lebergewichtes, Leberzellvergrößerung)” value ([2]; 4 Wochen p.o., 100 and 200 mg/kg)?
**A.** The value was “keinerlei Veränderungen der Leber”.

**Q.** With `CCOC(=O)C(C)(C)Oc1cc(-c2ccccc2)[nH]n1` [Substanz Nr. 7, 5-Phenyl-3-(2-äthoxycarbonylpropyl-2-oxy)-pyrazol] as the compound, how does the inhibition in vivo at 200 mg/kg (unbehandelten Ratte) read?
**A.** The inhibition in vivo at 200 mg/kg was 25%.

**Q.** Which results are given for `CC(C)(Oc1cc(-c2ccc(Cl)cc2)[nH]n1)C(=O)O` [5-(4-Chlorphenyl)-3-(2-hydroxycarbonylpropyl-2-oxy)-pyrazol]?
**A.** perorale antianaphylaktische Wirksamkeit (Versuchstieren): ausgeprägte perorale antianaphylaktische Wirksamkeit; Toxizität (NMRI-Maus): geringer Toxizität

**Q.** For `CCOC(=O)C(C)(C)Oc1ccc(Cl)cc1` [Clofibrat, a-(p-Chlorphenoxy)-a-methyl-propionsäureäthylester, reference compound], which LD50 at 168 h ([1]; ip, read-out: LD50 i.p.) is on record?
**A.** The LD50 at 168 h was 566 mg/kg.

**Q.** And the LD50 at 168 h ([1]; po, read-out: LD50 p.o.)?
**A.** Its LD50 at 168 h is > 1470 mg/kg.

**Q.** What about the “Serum Gesamt-Cholesterin” value [2, 3] of the same compound?
**A.** Its value is 6,9 ± 2,1 mmol/l.

**Q.** And the “Serum Triglyceride” value ([2]; 100 mg/kg p.o. täglich)?
**A.** Its value is 0,90 ± 0,16 mmol/l.

**Q.** What about the Lebergewicht ([2]; 100 mg/kg p.o. täglich) of the same compound?
**A.** The Lebergewicht was 8,2 ± 0,9 g/100 g.

**Q.** And the “Serum Gesamt-Cholesterin” value ([2]; 200 mg/kg p.o. täglich)?
**A.** Its value is 5,9 ± 1,7 mmol/l.

**Q.** What about the “Serum Triglyceride” value ([2]; 200 mg/kg p.o. täglich) of the same compound?
**A.** The value was 0,86 ± 0,66 mmol/l.

**Q.** What about the Lebergewicht ([2]; 200 mg/kg p.o. täglich) of the same compound?
**A.** Its Lebergewicht is 8,2 ± 0,7 g/100 g.

**Q.** Which results are given for “1,5-Diphenyl-3-(2-äthoxycarbonylpropyl-2-oxy)-pyrazol [Beispiel 1]”?
**A.** LD50 i.p. (NMRI-Maus; i.p., single administration, fasted NMRI mouse, 7 days): 684 mg/kg; LD50 p.o. (NMRI-Maus; p.o., single administration, fasted NMRI mouse, 7 days): >1470 mg/kg

**Q.** Which “perorale antianaphylaktische Wirksamkeit” value (Versuchstieren) does the source give for `CC(C)(Oc1cc(-c2ccccc2)[nH]n1)C(=O)O` [5-Phenyl-3-(2-hydroxycarbonylpropyl-2-oxy)-pyrazol] here?
**A.** Its value is “ausgeprägte perorale antianaphylaktische Wirksamkeit”.

**Q.** What about the Toxizität (NMRI-Maus) of the same compound?
**A.** The Toxizität was “geringer Toxizität”.

**Q.** Which inhibition in vivo at 200 mg/kg (unbehandelten Ratte) does the source give for `CCOC(=O)C(C)(C)Oc1cc(-c2ccc(Cl)cc2)n(-c2ccccc2)n1` [Substanz Nr. 6, 1-Phenyl-5-(4-chlorphenyl)-3-(2-äthoxycarbonyl-propyl-2-oxy)-pyrazol] here?
**A.** The inhibition in vivo at 200 mg/kg was 20%.

**Q.** Which inhibition in vivo at 200 mg/kg (unbehandelten Ratte) does the source give for `CC(C)(Oc1cc(-c2ccc(Cl)cc2)n(Cc2ccccc2)n1)C(N)=O` [Substanz Nr. 5, 1-Benzyl-5-(4-chlorphenyl)-3-(2-aminocarbonyl-propyl-2-oxy)-pyrazol] here?
**A.** The inhibition in vivo at 200 mg/kg was 15%.

**Q.** For `CC(C)(Oc1cc(-c2ccccc2)[nH]n1)C(N)=O` [Substanz Nr. 1, 5-Phenyl-3-(2-aminocarbonylpropyl-2-oxy)-pyrazol], which inhibition in vivo at 200 mg/kg (unbehandelten Ratte) is on record?
**A.** Its inhibition in vivo at 200 mg/kg is 15%.

**Q.** For `CC(C)(Oc1cc(-c2ccccc2)n(-c2ccccc2)n1)C(=O)O` [Substanz Nr. 8, 1,5-Diphenyl-3-(2-hydroxycarbonylpropyl-2-oxy)-pyrazol], which inhibition in vivo at 200 mg/kg (unbehandelten Ratte) is on record?
**A.** Its inhibition in vivo at 200 mg/kg is 30%.

**Q.** With `CC(C)(Oc1cc(-c2ccc(Cl)cc2)[nH]n1)C(N)=O` [Substanz Nr. 4, 5-(4-Chlorphenyl)-3-(2-aminocarbonylpropyl-2-oxy)-pyrazol] as the compound, how does the inhibition in vivo at 200 mg/kg (unbehandelten Ratte) read?
**A.** The inhibition in vivo at 200 mg/kg was 15%.

**Q.** Which inhibition in vivo at 200 mg/kg (unbehandelten Ratte) does the source give for `CC(C)(Oc1cc(-c2cccc(Cl)c2)n(-c2ccccc2)n1)C(N)=O` [Substanz Nr. 3, 1-Phenyl-5-(3-chlorphenyl)-3-(2-aminocarbonyl-propyl-2-oxy)-pyrazol] here?
**A.** Its inhibition in vivo at 200 mg/kg is 30%.
